Test results: ChEMBL document CHEMBL1150043, “Pachyclavulariolides M-R, six novel diterpenoids from a Taiwanese soft coral Pachyclavularia violacea” (2003)
Values after ≈ are worked out from the molar mass of the structure shown.

Tested on: P388
Test: Cytotoxicity against mouse P388 cells by MTT method
Format: functional
Conditions: read-out: ED50 (the source's name)

CC(=O)O[C@@H]1[C@@H](OC(C)=O)C2=C(C)C(=O)O[C@]2(O)C[C@@]2(C)O[C@@H]2CC[C@H](C)[C@H]2CC[C@]1(C)O2 [PACHYCLAVULARIOLIDE M]
EC50: 3.2 µg/mL (≈ 6.86 µM)
